Laboratory results taken from publication PMC11167047 (Cell Death Discovery, 2024).

How the values were obtained:
Test in all cases: kinome screen (33PanQinase)
Format in all cases: biochemical
GRK6 = target: T1, GRK6 (Homo sapiens, UniProt P43250)
T1 construct: purchased Reaction Biology Europe GmbH (formerly ProQinase)
Procedure: (§1) The Kinome Screening was performed by Reaction Biology Europe GmbH (http://reactionbiology.com; Freiburg i. Br., Germany).

BRSK2 = target: T2, BRSK2 (Homo sapiens, UniProt Q8IWQ3)
T2 construct: purchased Reaction Biology Europe GmbH (formerly ProQinase)
T2 sequence (Q8IWQ3 1-736): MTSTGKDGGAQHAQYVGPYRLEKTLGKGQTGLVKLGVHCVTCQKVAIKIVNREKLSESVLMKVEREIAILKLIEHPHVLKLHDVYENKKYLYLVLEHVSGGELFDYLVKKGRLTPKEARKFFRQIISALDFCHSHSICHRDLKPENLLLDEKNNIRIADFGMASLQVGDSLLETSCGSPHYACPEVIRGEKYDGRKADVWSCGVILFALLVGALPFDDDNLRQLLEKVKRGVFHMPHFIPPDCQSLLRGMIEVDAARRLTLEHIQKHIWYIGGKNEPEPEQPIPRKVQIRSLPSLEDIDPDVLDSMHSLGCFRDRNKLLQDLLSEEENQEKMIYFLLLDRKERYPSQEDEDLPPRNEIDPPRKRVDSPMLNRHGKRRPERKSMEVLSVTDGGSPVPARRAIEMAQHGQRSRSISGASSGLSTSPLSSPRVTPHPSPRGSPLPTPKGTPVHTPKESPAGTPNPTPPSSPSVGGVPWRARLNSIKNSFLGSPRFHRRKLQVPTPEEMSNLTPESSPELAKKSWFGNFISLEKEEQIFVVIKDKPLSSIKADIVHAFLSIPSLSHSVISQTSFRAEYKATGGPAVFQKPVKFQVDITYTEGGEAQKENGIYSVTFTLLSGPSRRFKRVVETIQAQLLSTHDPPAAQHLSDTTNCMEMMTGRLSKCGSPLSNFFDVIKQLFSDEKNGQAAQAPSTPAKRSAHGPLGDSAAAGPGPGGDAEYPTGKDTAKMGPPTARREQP
Procedure: as §1

PIM3 = target: T3, PIM3 (Homo sapiens, UniProt Q86V86)
T3 construct: purchased Reaction Biology Europe GmbH (formerly ProQinase)
Procedure: as §1

MAP3K7/MAP3K7IP1 = target: T4, MAP3K7/MAP3K7IP1 (Homo sapiens, UniProt O43318)
T4 construct: purchased Reaction Biology Europe GmbH (formerly ProQinase)
T4 sequence (O43318 1-303 limits assumed): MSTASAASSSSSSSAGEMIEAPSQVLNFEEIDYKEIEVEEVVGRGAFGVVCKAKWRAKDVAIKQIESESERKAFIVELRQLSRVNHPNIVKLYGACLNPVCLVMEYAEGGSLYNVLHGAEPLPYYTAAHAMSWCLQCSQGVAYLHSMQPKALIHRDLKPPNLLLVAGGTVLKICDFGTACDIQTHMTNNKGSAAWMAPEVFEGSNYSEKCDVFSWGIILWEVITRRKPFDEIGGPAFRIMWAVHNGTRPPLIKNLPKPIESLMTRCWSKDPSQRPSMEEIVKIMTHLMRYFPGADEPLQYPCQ
T4 sequence (Q15750 437-504 partner limits assumed): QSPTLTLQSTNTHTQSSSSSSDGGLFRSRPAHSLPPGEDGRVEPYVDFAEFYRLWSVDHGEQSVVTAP
Procedure: as §1

SAK = target: T5, SAK (Homo sapiens, UniProt O00444)
T5 construct: purchased Reaction Biology Europe GmbH (formerly ProQinase)
T5 sequence (O00444 1-970): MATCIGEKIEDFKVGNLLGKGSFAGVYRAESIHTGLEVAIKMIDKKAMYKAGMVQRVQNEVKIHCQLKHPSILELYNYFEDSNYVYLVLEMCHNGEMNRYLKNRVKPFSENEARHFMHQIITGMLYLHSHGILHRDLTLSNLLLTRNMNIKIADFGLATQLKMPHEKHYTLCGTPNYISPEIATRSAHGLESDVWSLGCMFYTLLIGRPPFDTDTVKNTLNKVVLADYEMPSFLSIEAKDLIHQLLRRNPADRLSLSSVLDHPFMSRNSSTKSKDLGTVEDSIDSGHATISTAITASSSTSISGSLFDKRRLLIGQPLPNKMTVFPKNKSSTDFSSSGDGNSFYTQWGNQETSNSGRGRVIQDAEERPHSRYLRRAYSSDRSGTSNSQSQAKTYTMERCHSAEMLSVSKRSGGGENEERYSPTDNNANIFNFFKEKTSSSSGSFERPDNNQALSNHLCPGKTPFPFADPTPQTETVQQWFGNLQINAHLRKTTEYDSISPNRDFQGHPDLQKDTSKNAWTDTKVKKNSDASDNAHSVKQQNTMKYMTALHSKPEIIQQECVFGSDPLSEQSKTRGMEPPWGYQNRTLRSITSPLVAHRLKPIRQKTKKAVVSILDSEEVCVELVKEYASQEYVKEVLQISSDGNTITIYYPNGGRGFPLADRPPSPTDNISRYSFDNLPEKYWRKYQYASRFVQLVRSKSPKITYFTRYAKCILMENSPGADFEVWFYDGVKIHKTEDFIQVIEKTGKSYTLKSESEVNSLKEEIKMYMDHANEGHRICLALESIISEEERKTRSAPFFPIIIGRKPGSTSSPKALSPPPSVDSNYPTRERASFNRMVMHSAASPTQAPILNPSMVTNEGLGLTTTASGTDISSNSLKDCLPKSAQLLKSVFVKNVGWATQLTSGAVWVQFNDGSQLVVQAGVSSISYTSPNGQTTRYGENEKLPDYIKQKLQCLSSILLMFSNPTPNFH
Procedure: as §1

CDK19/CycC = target: T6, CDK19/CycC (Homo sapiens, UniProt Q9BWU1)
T6 construct: purchased Reaction Biology Europe GmbH (formerly ProQinase)
Procedure: as §1

BUB1B = target: T7, BUB1B (Homo sapiens, UniProt O60566)
T7 construct: purchased Reaction Biology Europe GmbH (formerly ProQinase)
Procedure: as §1

T6 sequence (Q9BWU1 whole entry): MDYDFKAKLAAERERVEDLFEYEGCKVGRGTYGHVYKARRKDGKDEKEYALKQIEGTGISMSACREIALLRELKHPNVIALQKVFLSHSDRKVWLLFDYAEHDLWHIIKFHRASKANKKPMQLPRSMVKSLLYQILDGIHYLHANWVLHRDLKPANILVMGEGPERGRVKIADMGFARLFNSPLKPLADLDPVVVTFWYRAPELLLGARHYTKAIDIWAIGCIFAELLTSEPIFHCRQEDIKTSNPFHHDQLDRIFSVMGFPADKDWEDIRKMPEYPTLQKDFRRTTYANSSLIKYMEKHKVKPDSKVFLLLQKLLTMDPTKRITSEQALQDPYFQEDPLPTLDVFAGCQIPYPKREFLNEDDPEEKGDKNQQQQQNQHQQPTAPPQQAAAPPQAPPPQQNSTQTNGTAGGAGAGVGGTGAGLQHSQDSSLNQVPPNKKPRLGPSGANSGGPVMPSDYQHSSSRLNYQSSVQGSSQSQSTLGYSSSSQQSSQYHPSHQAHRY
T6 sequence (P24863 whole entry partner): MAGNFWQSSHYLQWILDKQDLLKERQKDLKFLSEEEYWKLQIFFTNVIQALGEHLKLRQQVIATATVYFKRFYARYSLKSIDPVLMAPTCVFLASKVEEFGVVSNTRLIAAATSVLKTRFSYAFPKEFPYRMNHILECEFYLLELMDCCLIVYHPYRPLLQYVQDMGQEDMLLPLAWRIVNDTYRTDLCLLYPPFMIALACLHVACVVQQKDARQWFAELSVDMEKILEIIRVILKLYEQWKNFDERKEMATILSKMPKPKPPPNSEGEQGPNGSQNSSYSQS
T1 sequence (P43250 whole entry): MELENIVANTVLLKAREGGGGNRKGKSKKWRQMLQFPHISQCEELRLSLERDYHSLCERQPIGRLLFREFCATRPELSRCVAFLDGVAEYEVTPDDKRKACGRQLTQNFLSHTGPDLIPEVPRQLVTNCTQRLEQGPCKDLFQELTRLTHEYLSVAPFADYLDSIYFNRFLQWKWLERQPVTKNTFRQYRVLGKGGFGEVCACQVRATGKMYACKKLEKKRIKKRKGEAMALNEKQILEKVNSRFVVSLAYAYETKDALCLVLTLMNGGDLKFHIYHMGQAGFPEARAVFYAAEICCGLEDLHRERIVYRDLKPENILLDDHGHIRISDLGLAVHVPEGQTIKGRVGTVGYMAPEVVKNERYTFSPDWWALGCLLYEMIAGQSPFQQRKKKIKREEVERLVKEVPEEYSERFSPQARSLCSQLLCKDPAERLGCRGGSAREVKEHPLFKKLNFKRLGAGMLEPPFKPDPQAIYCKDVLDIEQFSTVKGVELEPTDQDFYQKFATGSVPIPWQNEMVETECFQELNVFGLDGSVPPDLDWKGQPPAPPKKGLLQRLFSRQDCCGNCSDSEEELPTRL
T7 sequence (O60566 whole entry): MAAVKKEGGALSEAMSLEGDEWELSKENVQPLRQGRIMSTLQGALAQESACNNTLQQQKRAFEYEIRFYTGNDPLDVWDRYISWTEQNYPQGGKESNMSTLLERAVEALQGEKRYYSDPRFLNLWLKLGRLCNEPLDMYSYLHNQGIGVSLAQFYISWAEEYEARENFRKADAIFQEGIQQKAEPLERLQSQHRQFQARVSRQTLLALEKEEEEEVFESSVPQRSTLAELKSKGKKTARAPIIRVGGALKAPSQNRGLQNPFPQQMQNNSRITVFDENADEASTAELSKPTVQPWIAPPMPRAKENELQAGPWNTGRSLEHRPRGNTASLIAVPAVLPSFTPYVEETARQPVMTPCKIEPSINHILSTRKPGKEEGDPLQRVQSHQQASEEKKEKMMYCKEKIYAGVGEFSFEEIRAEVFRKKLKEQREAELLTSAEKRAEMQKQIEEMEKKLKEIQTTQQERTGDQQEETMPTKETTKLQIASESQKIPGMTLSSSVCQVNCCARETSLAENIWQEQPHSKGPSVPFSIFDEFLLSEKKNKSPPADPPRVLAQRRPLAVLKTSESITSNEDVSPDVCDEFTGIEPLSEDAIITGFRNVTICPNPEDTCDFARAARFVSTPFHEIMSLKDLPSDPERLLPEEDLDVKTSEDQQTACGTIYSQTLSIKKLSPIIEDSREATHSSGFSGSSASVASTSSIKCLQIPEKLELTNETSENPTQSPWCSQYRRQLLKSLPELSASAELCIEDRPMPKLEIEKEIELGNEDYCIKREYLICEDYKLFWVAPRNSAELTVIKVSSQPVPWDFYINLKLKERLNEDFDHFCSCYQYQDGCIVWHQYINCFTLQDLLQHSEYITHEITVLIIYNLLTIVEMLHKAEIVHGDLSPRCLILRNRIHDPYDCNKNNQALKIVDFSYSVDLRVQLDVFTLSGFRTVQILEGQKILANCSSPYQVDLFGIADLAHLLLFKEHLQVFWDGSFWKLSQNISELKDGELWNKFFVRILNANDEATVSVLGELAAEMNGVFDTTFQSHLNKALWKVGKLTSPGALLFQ

## COc1ccnc2[nH]cc(-c3cc(N)nc(N)c3)c12 [meriolin 16]
GRK6; 0.03 µM
  residual kinase activity: 98 % of control
GRK6; 0.3 µM
  residual kinase activity: 93 % of control
BRSK2; 0.03 µM
  residual kinase activity: 111 % of control
BRSK2; 0.3 µM
  residual kinase activity: 92 % of control
PIM3; 0.03 µM
  residual kinase activity: 118 % of control
PIM3; 0.3 µM
  residual kinase activity: 68 % of control
MAP3K7/MAP3K7IP1; 0.03 µM
  residual kinase activity: 54 % of control
MAP3K7/MAP3K7IP1; 0.3 µM
  residual kinase activity: 17 % of control
SAK; 0.03 µM
  residual kinase activity: 97 % of control
SAK; 0.3 µM
  residual kinase activity: 84 % of control
CDK19/CycC; 0.03 µM
  residual kinase activity: 6 % of control
CDK19/CycC; 0.3 µM
  residual kinase activity: 2 % of control
BUB1B; 0.03 µM
  residual kinase activity: 88 % of control
BUB1B; 0.3 µM
  residual kinase activity: 81 % of control

## c1ccc(CNc2cc(-c3c[nH]c4ncccc34)ccn2)cc1 [meriolin 36]
GRK6; 0.3 µM
  residual kinase activity: 96 % of control
GRK6; 3 µM
  residual kinase activity: 54 % of control
BRSK2; 0.3 µM
  residual kinase activity: 112 % of control
BRSK2; 3 µM
  residual kinase activity: 61 % of control
PIM3; 0.3 µM
  residual kinase activity: 85 % of control
PIM3; 3 µM
  residual kinase activity: 46 % of control
MAP3K7/MAP3K7IP1; 0.3 µM
  residual kinase activity: 15 % of control
MAP3K7/MAP3K7IP1; 3 µM
  residual kinase activity: 5 % of control
SAK; 0.3 µM
  residual kinase activity: 53 % of control
SAK; 3 µM
  residual kinase activity: 24 % of control
CDK19/CycC; 0.3 µM
  residual kinase activity: 3 % of control
CDK19/CycC; 3 µM
  residual kinase activity: 0 % of control
BUB1B; 0.3 µM
  residual kinase activity: 89 % of control
BUB1B; 3 µM
  residual kinase activity: 73 % of control
